# Measurements reported in patent publication US20230277508A1, “USE OF COMPOUND AS CYP2E1 INHIBITOR” (SHANGHAI LING XI BIOTECHNOLOGY DEVELOPMENT CO., LTD., priority 2020, published 2023).
# Key:
# [1] = target: T1, human liver microsome CYP2E1 (Homo sapiens, UniProt P05181); assay: Determination of IC50 for a CYP2E1 inhibitory effect (CZX probe, mixed liver microsome); assay type: biochemical; conditions: mixed liver microsome of healthy individuals 0.3 mg/mL, 62.5 μM CZX, 1 mM NADPH, 30 min; read-out: IC50 for 2E1 inhibition
# T1 construct: metabolic activity of a mixed liver microsome CYP2E1 of a healthy individual; from tissue; host or cells: mixed (pooled) human liver microsomes of healthy individuals
# Experimental: CZX was used as a probe substrate to detect an inhibitory effect of an inhibitor to be tested on the metabolic activity of a mixed liver microsome CYP2E1 of a healthy individual (IC50: half inhibition concentration; Ki: inhibition constant; the smaller the IC50 and the smaller the Ki, the higher the inhibition intensity of the inhibitor), thereby determining an inhibitory effect of the inhibitor to be tested on the human liver microsome CYP2E1.
# An incubation system in a total volume of 100 μL was adopted, including a substrate, an inhibitor of different concentrations, a liver microsomal protein, and phosphate-buffered saline (PBS). The incubation system was pre-incubated in a 37° C. water bath for 5 min, reduced coenzyme was added to allow a reaction for 30 min, and then the reaction was terminated in an ice bath. In a specific experiment, a concentration of an inhibitor can be selected as required.
# In this example, the incubation system includes 62.5 μM CZX, 100 mM (pH=7.4) PBS, 0.3 mg/mL liver microsomal protein, and 1 mM NADPH.
# In this example, the reaction is terminated with 1 mL of ethyl acetate. In other preferred examples, the reaction may also be terminated with 1 mL of methyl tert-butyl ether (MTBE), 1 mL of diethyl ether, or 100 μL of methanol.
# [2] = system: DEN-induced liver fibrosis in rats; assay: DEN-induced rat liver fibrosis model; assay type: in vivo, SD rat; conditions: 12 weeks, vs model group
# Experimental: Experimental method: An SD rat liver damage model was constructed through intermittent intraperitoneal injection of DEN. A model group was injected intraperitoneally with DEN at 50 mg/kg twice a week in the first 4 weeks and then once a week in the 5th to 12th weeks. An SMI0 intervention group was divided into SMI0+DEN low-dose and high-dose groups and an SMI0 high-dose continuous administration group, where the SMI0+DEN low-dose and high-dose groups were intragastrically administered with the compound SMI0 at 30 mg/kg and 150 mg/kg 5 min before DEN administration each time, respectively; and the SMI0 high-dose continuous administration group was intragastrically administered with the compound SMI0 at 150 mg/kg every day from the 1st week to the 12th week. At the end of molding, blood was collected from the orbit, and plasma liver function indexes of rats were determined by an automatic biochemical analyzer (model group, n=10 rats; SMI0 compound low-dose group, n=21 rats; SMI0 compound+DEN high-dose group, n=28 rats; and SMI0 compound high-dose continuous administration group, n=24 rats).
# CYP2E1 = target: T2, CYP2E1 (Mus musculus, UniProt Q05421); assay: CYP2E1 activity (CZX metabolism by liver microsome) in LPS-induced mouse pulmonary fibrosis model; assay type: in vivo; conditions: liver microsome of SMI0 high-dose group vs model group, P<0.05
# T2 construct: from tissue; host or cells: liver microsomes of treated model mice (calcium precipitation)
# Experimental: Experimental method: A calcium precipitation method was used to prepare a mouse liver microsome, and a Braford method was used to determine a protein concentration in the microsome. An incubation system was prepared with 2×PBS, a CZX solution, and the liver microsome at a final concentration of 0.5 mg/mL, and then pre-incubated at 37° C. for 5 min; NADPH was added to initiate a reaction, and a resulting mixture was incubated at 37° C. for 30 min and then placed on ice to terminate the reaction; and ethyl acetate was added to extract 6-hydroxychlorzoxazone, a resulting mixture was vortexed and centrifuged, and a resulting upper organic phase was collected and blow-dried with nitrogen. A peak area of a CZX metabolite 6-hydroxychlorzoxazone was detected by HPLC under the following conditions: methanol:water=56:44, and detection wavelength: 287 nm. A concentration A C of the metabolite 6-hydroxychlorzoxazone was calculated through substitution into a standard curve; and a reaction rate of conversion of CZX into 6-hydroxychlorzoxazone was calculated according to V(pmol/min/mg)=(ΔC*1000)/(B*T) to evaluate an enzymatic activity of CYP2E1, where B represents a protein concentration of the microsome (mg/mL) and T represents an incubation time (min). A correlation between a CYP2E1 activity and a pulmonary fibrosis severity in mice was analyzed.
# [3] = system: LPS-induced sepsis in rats; assay: LPS-induced rat sepsis model; assay type: in vivo, SD rat; conditions: SMI0 150 mg/kg ig or celecoxib 5 mg/kg ig 30 min before LPS 5 mg/kg ip; 4 h, 5 h, 6 h; vs model group
# Experimental: Rats: An SD rat sepsis model was constructed through single intraperitoneal injection of LPS (5 mg/kg). 30 min before LPS administration, rats in the model group were administered with NS (0.5 mL/kg, i.g.), rats in the positive control group were administered with celecoxib (5 mg/kg, i.g.), and rats in the CYP2E1 inhibition group were administered with the compound SMI0 (150 mg/kg, i.g.). After LPS administration, a body temperature of each rat was measured and recorded every hour until 9 h (control group, n=8 rats; model group, n=10 rats; celecoxib group, n=10 rats; and SMI0 compound group, n=10 rats).
# [4] = system: U251 cells / M2 microglial cells; assay: U251 cells co-cultivated with M2 microglial cells; assay type: cell-based, human; conditions: SMI0 50 μmol/L vs M2 microglial cell co-cultivation group, P<0.001
# Experimental: Experimental method: 10 1-2 d newborn C57BL/6 WT mice and 6 CYP2E1^−/− mice were taken, primary microglial cells and astrocytes were collected and inoculated into 6-well plates, and 24 h later, culture supernatants were taken and co-cultivated with glioma cells. Experimental groups: control group; M2 model group; high-concentration, medium-concentration, and low-concentration SMI0 (50 μmol/L, 12.5 μmol/L, and 3.1 μmol/L) groups; and CYP2E1 gene-knockout group. 24 h later, supernatants were discarded; and […] and IL-13 each were added at 20 ng/mL to induce the transformation of microglial cells into the M2 type in the M2 model group and the high-concentration, medium-concentration, and low-concentration SMI0 groups, and different concentrations of SMI0 (50 μmol/L, 12.5 μmol/L, and 3.1 μmol/L) were also added in the intervention groups. The proliferation of glioma cells was determined by a CCK8 method, and an apoptosis proportion was determined by an Annexin V-FITC-PI apoptosis staining kit.
# T1 sequence (P05181 whole entry): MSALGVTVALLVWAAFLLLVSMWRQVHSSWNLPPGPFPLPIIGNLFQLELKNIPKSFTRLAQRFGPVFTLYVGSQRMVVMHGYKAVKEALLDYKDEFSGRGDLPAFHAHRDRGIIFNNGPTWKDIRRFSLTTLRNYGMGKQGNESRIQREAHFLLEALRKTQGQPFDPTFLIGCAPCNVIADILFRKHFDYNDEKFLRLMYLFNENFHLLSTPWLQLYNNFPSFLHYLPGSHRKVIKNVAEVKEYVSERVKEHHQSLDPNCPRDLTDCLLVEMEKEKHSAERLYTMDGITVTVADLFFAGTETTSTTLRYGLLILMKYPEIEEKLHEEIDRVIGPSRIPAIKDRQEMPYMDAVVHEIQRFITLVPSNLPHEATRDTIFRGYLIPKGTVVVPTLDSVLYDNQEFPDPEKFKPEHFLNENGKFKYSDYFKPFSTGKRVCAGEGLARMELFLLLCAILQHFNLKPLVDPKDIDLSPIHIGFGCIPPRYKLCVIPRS
# T2 sequence (Q05421 whole entry): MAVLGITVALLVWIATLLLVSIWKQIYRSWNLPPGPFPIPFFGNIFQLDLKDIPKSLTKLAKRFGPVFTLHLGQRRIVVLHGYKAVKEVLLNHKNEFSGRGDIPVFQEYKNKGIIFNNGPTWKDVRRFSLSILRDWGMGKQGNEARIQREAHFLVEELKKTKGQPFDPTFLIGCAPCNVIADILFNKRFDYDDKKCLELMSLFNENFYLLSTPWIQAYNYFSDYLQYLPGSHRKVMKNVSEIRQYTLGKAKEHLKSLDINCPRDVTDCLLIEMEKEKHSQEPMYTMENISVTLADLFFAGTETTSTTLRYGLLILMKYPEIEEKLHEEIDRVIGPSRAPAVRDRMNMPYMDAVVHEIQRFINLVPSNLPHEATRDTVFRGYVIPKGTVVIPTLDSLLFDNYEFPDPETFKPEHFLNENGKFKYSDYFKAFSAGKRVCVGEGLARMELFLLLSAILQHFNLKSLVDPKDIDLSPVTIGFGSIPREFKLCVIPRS
structure (smiles),measurement,setting,value
CC(=O)c1scnc1C [SMI0],IC50,[1],1640 nM
same,liver coefficient,"[2]; SMI0 intervention group (30, 150 mg/kg before DEN; 150 mg/kg daily)",reduced to varying degrees
same,Collagen I,[2]; SMI0 intervention group,reduced to varying degrees
same,liver fibrosis Ishark score,[2]; SMI0 intervention group,reduced to varying degrees
same,liver fibrosis Masson staining area percentage,[2]; SMI0 intervention group,reduced to varying degrees
same,α-SMA,[2]; SMI0 intervention group,reduced to varying degrees
same,reaction rate V of CZX metabolism,CYP2E1,significantly reduced
same,increase in body temperature in the LPS-induced sepsis rat model,[3],avoided
same,proliferation of U251 cells,[4],significantly inhibited
